# Data as given in patent US11214803B2, “Modulators of YAP1 expression” (Ionis Pharmaceuticals, Inc., priority 2019, dated 2022).
# Strand notation (5' to 3'): a small letter for the sugar, then the base; units joined by * are phosphorothioate-linked, units joined directly phosphodiester-linked; [ ] holds rarer units or linkages, { } end groups; capitals alone tell only the bases. k = constrained ethyl (cEt); [5mC] = 5-methylcytosine; d = 2'-deoxy (DNA)
# System: Yap1 mRNA
# Experiment: Antisense inhibition of human Yap1 in A-431 cells by cEt gapmers, single dose (Example 3, RTS36584)
# Assay type: cell-based
# In short: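 Free uptake, 2,000 nM, ~48 h, A-431 cells. Gapmers: 16-mer 3-10-3 cEt wings, PS backbone, 5-MeC. Readout qRT-PCR, RiboGreen-normalized, % UTC.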
# [1] = Table 26, Yap1 mRNA by 3-10-3 cEt gapmers targeting SEQ ID NO.: 1, and 2, percent of untreated control
# [2] = Table 9, A-431 cells, 5,000 cells per well, free uptake, 2,000 nM, approximately 48 hours, RTS36584, normalized to RIBOGREEN, Yap1 mRNA relative to untreated control cells
# [3] = Table 34, Yap1 mRNA as percent of untreated control, 3-10-3 cEt gapmers targeting SEQ ID NO: 1 and 2, single dose
# [4] = Table 8, A-431 cells, 5,000 cells per well, free uptake, 2,000 nM, approximately 48 hours, RTS36584, normalized to RIBOGREEN, Yap1 mRNA relative to untreated control cells
# [5] = Table 35, Yap1 mRNA as percent of untreated control, 3-10-3 cEt gapmers targeting SEQ ID NO: 1 and 2, single dose
# [6] = Table 11, A-431 cells, 5,000 cells per well, free uptake, 2,000 nM oligonucleotide, approx. 48 hours, primer probe set RTS36584, Yap1 mRNA normalized to RIBOGREEN, percent of untreated control
# [7] = Table 10, A-431 cells, 5,000 cells per well, free uptake, 2,000 nM oligonucleotide, approx. 48 hours, primer probe set RTS36584, Yap1 mRNA normalized to RIBOGREEN, percent of untreated control
# [8] = Table 13, A-431 cells, 5,000 cells per well, free uptake, 2,000 nM modified oligonucleotide, approx. 48 hours, RTS36584, normalized to RIBOGREEN, Yap1 mRNA relative to untreated control cells
# [9] = Table 28, Yap1 mRNA as percent of untreated control, 3-10-3 cEt gapmers targeting SEQ ID NO.: 1, and 2
# [10] = Table 12, A-431 cells, 5,000 cells per well, free uptake, 2,000 nM modified oligonucleotide, approx. 48 hours, RTS36584, normalized to RIBOGREEN, Yap1 mRNA relative to untreated control cells
# [11] = Table 29, Yap1 mRNA as percent of untreated control, 3-10-3 cEt gapmers targeting SEQ ID NO.: 1, and 2
substance,measurement,setting,value
1074572 (DNA kT*kT*kA*dT*dG*dA*dA*d[5mC]*d[5mC]*dT*dA*d[5mC]*dT*k[5mC]*kA*k[5mC]) [compound 1074572],YAP1 (% UTC),[1],17 % UTC
958686 (antisense k[5mC]*kG*k[5mC]*dA*dA*dT*dA*dT*dA*dG*dT*d[5mC]*dT*kA*kT*kA) [Compound 958686],YAP1 (% UTC),[2],4 % UTC
1074260 (antisense kG*kT*kT*d[5mC]*dA*dT*d[5mC]*dA*dT*dA*dT*dT*d[5mC]*kT*kG*k[5mC]) [compound 1074260],YAP1 (% UTC),[3],48 % UTC
958410 (antisense kT*kT*kT*dA*d[5mC]*d[5mC]*dA*dA*dA*dA*d[5mC]*dG*dA*kG*kG*kG) [Compound 958410],YAP1 (% UTC),[4],70 % UTC
1074677 (antisense k[5mC]*kT*kA*d[5mC]*dT*dG*dG*d[5mC]*dA*dA*dA*dT*dT*kA*kT*kA) [compound 1074677],YAP1 (% UTC),[5],22 % UTC
958573 (kG*kG*k[5mC]*dA*dA*dA*dT*dT*dA*dT*dA*dG*dG*k[5mC]*kA*k[5mC]; antisense) [Compound 958573],YAP1 (% UTC),[6],2 % UTC
1075028 (antisense kA*kA*kA*dA*dA*dT*d[5mC]*dA*dA*dG*d[5mC]*d[5mC]*d[5mC]*kT*k[5mC]*kG) [compound 1075028],YAP1 (% UTC),[3],103 % UTC
958597 (k[5mC]*k[5mC]*k[5mC]*dA*dA*dT*dA*d[5mC]*dA*dA*d[5mC]*d[5mC]*dA*kA*kG*kA; antisense) [Compound 958597],YAP1 (% UTC),[7],6 % UTC
958595 (k[5mC]*k[5mC]*kA*d[5mC]*dA*dT*d[5mC]*dA*dA*dG*dG*d[5mC]*dT*kA*kT*kG; antisense) [Compound 958595],YAP1 (% UTC),[8],8 % UTC
958811 (k[5mC]*kA*k[5mC]*dT*dG*dA*dG*dG*d[5mC]*dA*d[5mC]*dG*dG*k[5mC]*k[5mC]*k[5mC]; antisense) [Compound 958811],YAP1 (% UTC),[2],92 % UTC
1074388 (kG*kA*k[5mC]*dT*dT*dG*dG*d[5mC]*dA*dT*d[5mC]*dA*dG*k[5mC]*kT*k[5mC]; antisense) [compound 1074388],YAP1 (% UTC),[3],16 % UTC
1074510 (kA*kT*kA*d[5mC]*dA*dT*dT*d[5mC]*d[5mC]*dA*d[5mC]*dT*dA*k[5mC]*k[5mC]*kA; antisense) [compound 1074510],YAP1 (% UTC),[9],10 % UTC
1075252 (kT*kT*kA*dA*dT*dT*dA*d[5mC]*dG*dA*dT*dT*dA*kG*kA*kT; antisense) [compound 1075252],YAP1 (% UTC),[3],90 % UTC
1075756 (kA*kT*kT*dT*dA*d[5mC]*d[5mC]*d[5mC]*dT*dG*d[5mC]*d[5mC]*dA*k[5mC]*kT*kT; antisense) [compound 1075756],YAP1 (% UTC),[1],49 % UTC
958463 (antisense k[5mC]*k[5mC]*kT*dG*dA*dG*dA*d[5mC]*dA*dT*d[5mC]*d[5mC]*d[5mC]*kG*kG*kG) [Compound 958463],YAP1 (% UTC),[6],63 % UTC
958649 (kT*kG*k[5mC]*d[5mC]*dA*d[5mC]*dT*dG*dG*dT*dG*dA*dA*kT*kA*k[5mC]; antisense) [Compound 958649],YAP1 (% UTC),[10],36 % UTC
1075988 (kA*kA*kT*dT*dA*dA*dG*d[5mC]*dT*dT*d[5mC]*dT*d[5mC]*kT*kA*kG; antisense) [compound 1075988],YAP1 (% UTC),[3],90 % UTC
958478 (antisense kG*kG*kA*dA*dA*dT*dT*dT*d[5mC]*d[5mC]*dG*dG*dT*kG*k[5mC]*kA) [Compound 958478],YAP1 (% UTC),[6],14 % UTC
958803 (antisense kG*kA*kT*dA*dA*dT*d[5mC]*dA*dT*d[5mC]*d[5mC]*dT*d[5mC]*kA*kG*k[5mC]) [Compound 958803],YAP1 (% UTC),[6],24 % UTC
1076110 (k[5mC]*kT*kT*dT*dA*d[5mC]*d[5mC]*dT*dA*dA*dA*dT*dG*kT*kT*kG; antisense) [compound 1076110],YAP1 (% UTC),[9],53 % UTC
958612 (antisense kA*k[5mC]*k[5mC]*dT*dA*dA*d[5mC]*dA*dT*dA*dT*dG*dA*kG*k[5mC]*kA) [Compound 958612],YAP1 (% UTC),[7],18 % UTC
958807 (kT*k[5mC]*kA*dT*dT*dG*dT*dA*dG*dT*d[5mC]*dT*dG*kT*k[5mC]*kT; antisense) [Compound 958807],YAP1 (% UTC),[7],3 % UTC
1075636 (antisense k[5mC]*kA*kA*dT*dA*dA*dA*d[5mC]*dA*d[5mC]*d[5mC]*dT*d[5mC]*kG*k[5mC]*k[5mC]) [compound 1075636],YAP1 (% UTC),[3],91 % UTC
958636 (antisense k[5mC]*k[5mC]*kG*d[5mC]*dA*d[5mC]*d[5mC]*dG*d[5mC]*dG*dG*d[5mC]*d[5mC]*k[5mC]*kG*kG) [Compound 958636],YAP1 (% UTC),[2],126 % UTC
958513 (kG*k[5mC]*kG*d[5mC]*dT*dA*d[5mC]*d[5mC]*dA*dT*dT*dT*dT*kA*kA*kA; antisense) [Compound 958513],YAP1 (% UTC),[6],104 % UTC
958439 (antisense kG*k[5mC]*kG*d[5mC]*d[5mC]*d[5mC]*d[5mC]*dG*dG*d[5mC]*dT*d[5mC]*d[5mC]*kA*k[5mC]*kT) [Compound 958439],YAP1 (% UTC),[10],77 % UTC
958470 (antisense kT*kA*kG*dA*dT*d[5mC]*d[5mC]*dT*dT*d[5mC]*dA*d[5mC]*dA*kG*kA*kT) [Compound 958470],YAP1 (% UTC),[8],18 % UTC
1076149 (kT*kT*kA*dT*dT*dA*dA*d[5mC]*dT*d[5mC]*dA*d[5mC]*dG*kA*kA*kG; antisense) [compound 1076149],YAP1 (% UTC),[5],24 % UTC
1075564 (kA*kT*kA*dT*dA*dA*d[5mC]*dA*dG*dG*d[5mC]*d[5mC]*dA*k[5mC]*k[5mC]*kA; antisense) [compound 1075564],YAP1 (% UTC),[1],81 % UTC
958667 (kT*kG*k[5mC]*d[5mC]*dG*dG*dG*d[5mC]*d[5mC]*d[5mC]*d[5mC]*dT*dA*kT*kG*k[5mC]; antisense) [Compound 958667],YAP1 (% UTC),[7],80 % UTC
958764 (antisense kT*kG*kG*dG*dT*d[5mC]*dT*d[5mC]*dT*dT*dG*dA*dT*kT*kT*k[5mC]) [Compound 958764],YAP1 (% UTC),[10],34 % UTC
958394 (antisense kT*kT*kG*dA*dA*dA*d[5mC]*d[5mC]*dT*dG*dA*dT*d[5mC]*k[5mC]*kT*kT) [Compound 958394],YAP1 (% UTC),[4],54 % UTC
958471 (antisense k[5mC]*kT*kT*dA*dG*dA*dT*d[5mC]*d[5mC]*dT*dT*d[5mC]*dA*k[5mC]*kA*kG) [Compound 958471],YAP1 (% UTC),[2],14 % UTC
1076271 (k[5mC]*kG*kG*d[5mC]*dA*dA*d[5mC]*dA*dA*d[5mC]*dA*dA*dA*kA*kT*kG; antisense) [compound 1076271],YAP1 (% UTC),[11],18 % UTC
1075823 (kT*kA*kT*dT*dA*dG*dA*dG*dG*dT*dT*d[5mC]*d[5mC]*kA*kG*kG; antisense) [compound 1075823],YAP1 (% UTC),[11],30 % UTC
1074612 (DNA kA*kT*kA*dG*d[5mC]*dT*dT*dA*dT*dA*dT*dT*dG*kA*kA*kG; further chemistry not given here) [compound 1074612],YAP1 (% UTC),[3],12 % UTC
958466 (antisense kG*kT*k[5mC]*dA*dT*dT*dA*dA*dG*dG*dA*dT*dG*kT*k[5mC]*kA) [Compound 958466],YAP1 (% UTC),[2],9 % UTC
1075541 (kG*k[5mC]*kT*d[5mC]*dA*dA*dA*dA*d[5mC]*dT*dG*dA*d[5mC]*kA*kT*kA; antisense) [compound 1075541],YAP1 (% UTC),[5],47 % UTC
1074348 (antisense kG*kT*kA*d[5mC]*dT*d[5mC]*dT*d[5mC]*dA*dT*d[5mC]*dT*d[5mC]*kG*kA*kG) [compound 1074348],YAP1 (% UTC),[1],100 % UTC
1076117 (k[5mC]*kT*kA*dG*dA*dA*dA*dA*dT*dA*dG*d[5mC]*d[5mC]*k[5mC]*kA*kT; antisense) [compound 1076117],YAP1 (% UTC),[5],15 % UTC
1074709 (antisense kT*k[5mC]*kT*dA*dG*dA*dA*d[5mC]*dA*dG*d[5mC]*dT*dG*k[5mC]*k[5mC]*kT) [compound 1074709],YAP1 (% UTC),[5],71 % UTC
1076300 (kA*kA*kA*dA*dA*dA*dT*dG*dG*d[5mC]*dT*dT*d[5mC]*kA*k[5mC]*kG; antisense) [compound 1076300],YAP1 (% UTC),[1],22 % UTC
958766 (antisense kT*kA*kA*d[5mC]*dA*dT*dA*dT*dG*dT*d[5mC]*dT*dA*k[5mC]*kT*k[5mC]) [Compound 958766],YAP1 (% UTC),[2],23 % UTC
1074127 (k[5mC]*k[5mC]*kA*d[5mC]*dT*dG*dG*dT*d[5mC]*dT*dG*dG*d[5mC]*kG*kG*k[5mC]; antisense) [compound 1074127],YAP1 (% UTC),[11],57 % UTC
1075535 (kA*kA*kT*dT*dA*d[5mC]*d[5mC]*d[5mC]*dA*dA*dG*dG*dA*k[5mC]*kA*kG; antisense) [compound 1075535],YAP1 (% UTC),[11],53 % UTC
